# In patent publication US20260232763A1 (Kadmon Corporation, LLC, priority 2023, published 2026):
# Where “and” joins values, the source holds several entries; their conditions need not be identical. Equal values may be shown once. Read-outs that look alike come from different tables or passages of the source.
# Columns and labels:
# UGT1A1 = target: T1, UGT1A1 (Homo sapiens, UniProt P22309); settings: in vitro; cited from earlier work
# T1 sequence (P22309 26-533): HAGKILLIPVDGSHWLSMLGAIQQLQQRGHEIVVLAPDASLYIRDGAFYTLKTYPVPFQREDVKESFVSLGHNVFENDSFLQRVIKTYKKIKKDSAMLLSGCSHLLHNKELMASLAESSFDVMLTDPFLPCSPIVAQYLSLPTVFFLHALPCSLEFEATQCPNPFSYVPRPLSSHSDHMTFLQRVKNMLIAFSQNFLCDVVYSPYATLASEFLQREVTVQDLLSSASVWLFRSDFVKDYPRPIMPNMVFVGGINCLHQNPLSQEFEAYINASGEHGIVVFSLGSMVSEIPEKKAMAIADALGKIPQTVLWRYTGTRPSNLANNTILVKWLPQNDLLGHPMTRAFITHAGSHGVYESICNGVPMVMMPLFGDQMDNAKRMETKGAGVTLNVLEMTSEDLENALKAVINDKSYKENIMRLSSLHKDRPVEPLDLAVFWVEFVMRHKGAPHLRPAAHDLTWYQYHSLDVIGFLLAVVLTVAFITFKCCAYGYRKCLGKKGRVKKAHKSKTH
# clinical [1] = settings: male, human, in vivo
# Description: (§1) On Day 10, the victim and perpetrator IMPs were administered simultaneously.
# (§2) On the evening before each dose, participants were provided with a light snack and were required to fast from all food and drink (except water) for a minimum of 10 hours until the following morning. All study interventions were administered in the fed state, following completion of a standard breakfast (with dosing planned to occur 30 minutes after the start of the breakfast).
# (§3) The PK parameters underwent a natural logarithmic transformation and were analyzed using a mixed effect modelling technique. Adjusted geometric mean ratios and 90% confidence intervals (CIs) of the ratios were obtained for each comparison. The ratio was defined as test/reference. In addition, the intraparticipant variability were also presented. […] No formal interim analyses were performed for this study.
# [2] = tested on: human peripheral blood lymphocytes (HPBL); settings: chromosome aberration; cited from earlier work
# CYP2D6 = CYP2D6 (Homo sapiens, UniProt P10635); settings: in vitro; cited from earlier work
# CYP3A4 [3] = target: T2, CYP3A4 (Homo sapiens, UniProt P08684); experiment: in vitro metabolism; assay type: in vitro ADME; settings: in vitro assessments
# BCRP = target: T3, BCRP (Homo sapiens, UniProt Q9UNQ0); settings: in vitro, at clinically relevant concentrations; cited from earlier work
# T3 sequence (Q9UNQ0 1-655): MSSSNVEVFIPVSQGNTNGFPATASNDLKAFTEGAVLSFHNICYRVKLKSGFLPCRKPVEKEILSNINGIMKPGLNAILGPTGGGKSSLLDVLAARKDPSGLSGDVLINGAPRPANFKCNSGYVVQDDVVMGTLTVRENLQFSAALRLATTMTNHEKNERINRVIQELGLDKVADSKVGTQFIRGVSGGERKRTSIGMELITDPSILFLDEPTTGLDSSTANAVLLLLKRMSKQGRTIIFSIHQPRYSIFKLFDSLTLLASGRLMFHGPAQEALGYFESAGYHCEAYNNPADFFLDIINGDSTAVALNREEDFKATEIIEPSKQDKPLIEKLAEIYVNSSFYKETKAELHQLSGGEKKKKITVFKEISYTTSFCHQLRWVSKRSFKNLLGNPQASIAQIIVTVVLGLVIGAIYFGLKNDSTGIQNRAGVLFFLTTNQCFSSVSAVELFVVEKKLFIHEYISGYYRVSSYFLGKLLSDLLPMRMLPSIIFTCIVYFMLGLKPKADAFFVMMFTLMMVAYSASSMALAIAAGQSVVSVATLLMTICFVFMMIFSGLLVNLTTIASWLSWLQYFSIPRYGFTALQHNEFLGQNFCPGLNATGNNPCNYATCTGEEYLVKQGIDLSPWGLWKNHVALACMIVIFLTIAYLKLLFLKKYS
# rat bone marrow = rat bone marrow micronucleus; cited from earlier work
# CYP3A4 [4] = target: T2, CYP3A4; settings: in vitro; cited from earlier work
# solubility = assay type: physicochemical; settings: in vitro assessments
# human serum albumin = human serum albumin (Homo sapiens, UniProt P02768); settings: in vitro; cited from earlier work
# pregnant rats = settings: cited from earlier work
# CYP2C19 = CYP2C19 (Homo sapiens, UniProt P33261); settings: in vitro; cited from earlier work
# CYP1A2 = target: T4, CYP1A2 (Homo sapiens, UniProt P05177); settings: in vitro; cited from earlier work
# T4 sequence (P05177 1-516): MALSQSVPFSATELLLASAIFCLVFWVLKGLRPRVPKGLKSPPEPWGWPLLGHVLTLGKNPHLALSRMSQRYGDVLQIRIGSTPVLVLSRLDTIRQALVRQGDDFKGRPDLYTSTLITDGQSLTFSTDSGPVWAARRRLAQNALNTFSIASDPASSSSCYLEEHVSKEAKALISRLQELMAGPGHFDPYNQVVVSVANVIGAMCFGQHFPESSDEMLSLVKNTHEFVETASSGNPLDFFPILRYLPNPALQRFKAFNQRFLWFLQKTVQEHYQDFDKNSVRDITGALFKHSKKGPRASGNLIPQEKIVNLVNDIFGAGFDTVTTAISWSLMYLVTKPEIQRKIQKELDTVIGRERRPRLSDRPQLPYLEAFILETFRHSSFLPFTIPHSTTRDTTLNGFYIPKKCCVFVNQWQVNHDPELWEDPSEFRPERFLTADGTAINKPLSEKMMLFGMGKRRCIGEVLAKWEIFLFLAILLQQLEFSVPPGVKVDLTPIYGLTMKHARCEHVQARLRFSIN
# [5] = tested on: bacterial mutagenicity (Ames); settings: cited from earlier work
# clinical [6] = settings: male, human, in vivo; remark: listed apart in the source
# Description: as §1, §2, §3
# T2 sequence (P08684 whole entry): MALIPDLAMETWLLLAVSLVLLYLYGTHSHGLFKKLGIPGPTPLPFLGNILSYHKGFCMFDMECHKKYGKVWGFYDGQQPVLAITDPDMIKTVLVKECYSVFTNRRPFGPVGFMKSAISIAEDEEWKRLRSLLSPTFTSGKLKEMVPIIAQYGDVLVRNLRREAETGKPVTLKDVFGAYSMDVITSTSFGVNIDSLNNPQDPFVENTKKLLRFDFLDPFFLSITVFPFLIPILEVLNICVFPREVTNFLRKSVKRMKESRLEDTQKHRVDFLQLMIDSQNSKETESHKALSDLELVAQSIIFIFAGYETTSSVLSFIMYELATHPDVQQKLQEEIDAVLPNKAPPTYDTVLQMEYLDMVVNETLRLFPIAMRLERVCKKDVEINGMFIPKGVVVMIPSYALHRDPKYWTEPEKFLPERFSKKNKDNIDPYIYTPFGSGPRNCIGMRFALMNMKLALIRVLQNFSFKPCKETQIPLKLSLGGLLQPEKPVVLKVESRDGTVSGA
# Sequence of CYP2D6 (P10635 whole entry): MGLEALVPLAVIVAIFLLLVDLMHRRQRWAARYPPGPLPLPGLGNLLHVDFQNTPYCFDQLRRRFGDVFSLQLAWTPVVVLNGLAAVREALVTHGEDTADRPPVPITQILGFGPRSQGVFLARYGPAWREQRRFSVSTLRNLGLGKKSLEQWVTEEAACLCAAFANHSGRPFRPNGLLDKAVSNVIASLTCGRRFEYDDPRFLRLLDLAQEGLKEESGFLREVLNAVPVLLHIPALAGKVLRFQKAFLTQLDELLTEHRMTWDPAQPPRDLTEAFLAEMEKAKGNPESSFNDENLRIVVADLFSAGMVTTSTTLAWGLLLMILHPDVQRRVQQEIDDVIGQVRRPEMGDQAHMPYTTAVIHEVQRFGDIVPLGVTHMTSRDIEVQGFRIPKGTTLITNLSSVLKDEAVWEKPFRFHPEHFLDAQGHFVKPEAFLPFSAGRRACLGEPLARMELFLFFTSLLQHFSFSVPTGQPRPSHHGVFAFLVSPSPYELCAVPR
# Sequence of human serum albumin (P02768 25-609): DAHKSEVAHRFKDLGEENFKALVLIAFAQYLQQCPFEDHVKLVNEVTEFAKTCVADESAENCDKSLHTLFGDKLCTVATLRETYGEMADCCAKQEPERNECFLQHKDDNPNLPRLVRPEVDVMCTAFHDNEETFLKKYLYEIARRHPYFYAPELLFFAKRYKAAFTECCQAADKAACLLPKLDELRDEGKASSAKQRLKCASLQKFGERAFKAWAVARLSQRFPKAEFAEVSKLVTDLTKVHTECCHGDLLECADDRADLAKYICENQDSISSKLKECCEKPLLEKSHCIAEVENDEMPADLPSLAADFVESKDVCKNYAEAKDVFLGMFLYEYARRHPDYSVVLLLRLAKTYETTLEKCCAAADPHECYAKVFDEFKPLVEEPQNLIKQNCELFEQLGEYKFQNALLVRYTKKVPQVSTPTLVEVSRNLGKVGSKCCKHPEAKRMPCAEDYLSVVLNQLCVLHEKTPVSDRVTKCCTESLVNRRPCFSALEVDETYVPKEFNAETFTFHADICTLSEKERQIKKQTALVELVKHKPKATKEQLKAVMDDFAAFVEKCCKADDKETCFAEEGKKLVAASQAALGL
# Sequence of CYP2C19 (P33261 whole entry): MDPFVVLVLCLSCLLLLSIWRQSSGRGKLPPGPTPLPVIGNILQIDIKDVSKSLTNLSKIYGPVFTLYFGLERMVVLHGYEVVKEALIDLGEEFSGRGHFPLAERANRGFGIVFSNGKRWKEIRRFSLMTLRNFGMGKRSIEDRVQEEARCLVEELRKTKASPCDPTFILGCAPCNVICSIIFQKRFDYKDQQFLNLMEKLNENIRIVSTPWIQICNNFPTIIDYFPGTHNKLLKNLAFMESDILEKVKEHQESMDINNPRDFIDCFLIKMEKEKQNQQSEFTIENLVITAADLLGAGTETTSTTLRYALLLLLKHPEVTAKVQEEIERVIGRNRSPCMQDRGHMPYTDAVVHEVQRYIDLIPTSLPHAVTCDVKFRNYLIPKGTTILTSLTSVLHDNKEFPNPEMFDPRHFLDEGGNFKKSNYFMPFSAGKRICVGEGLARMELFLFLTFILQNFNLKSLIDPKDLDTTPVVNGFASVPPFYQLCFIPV
compound,measurement,setting,value
"CC(C)NC(=O)COc1cccc(-c2nc(Nc3ccc4[nH]ncc4c3)c3ccccc3n2)c1 [belumosudil, 2-{3-[4-(1H-indazol-5-ylamino)-2-quinazolinyl]phenoxy}-N-(propan-2-yl) acetamide]",UGT1A1 inhibition,UGT1A1,inhibitor
same,Tmax,clinical [1],1.5 to 2 h
same,increase of exposures (Cmax and AUC) following multiple dosing,clinical [1],1.21-1.57 fold
same,"AUC(0-last), geometric mean",clinical [1]; 200 mg,9710 ng·h/mL
same,"AUC(0-tau), geometric mean",clinical [1]; 200 mg,9710 ng·h/mL
same,"Cmax, geometric mean",clinical [1]; 200 mg,2080 ng/mL
same,"T1/2, geometric mean",clinical [1]; 200 mg,4.901 h
same,half-life,clinical [1]; 200 mg,~5 h
same,genotoxicity,[2],not genotoxic
same,CYP2D6 inhibition,CYP2D6,inhibitor
same,metabolism,CYP3A4 [3],primarily dependent on cytochrome P450 CYP3A4 activity
same,BCRP inhibition,BCRP,inhibits
same,genotoxicity,rat bone marrow,not genotoxic
same,metabolism,CYP3A4 [4],"primarily metabolized by CYP3A4 and to a lesser extent by CYP2C8, CYP2D6, and UGT1A9"
same,solubility,solubility,pH dependent
same,binding to human serum albumin,human serum albumin,99.9%
same,"maternal exposures (AUC) with adverse developmental outcomes, times the human exposure (AUC) at the recommended dose","pregnant rats; pregnant rats, period of organogenesis",≥ 3 times
same,dose with fetal malformations,"pregnant rats; rats, oral, pilot study",≥ 50 mg/kg/day
same,dose with maternal toxicity (reduced body weight gain),"pregnant rats; rats, oral, pilot study",150 mg/kg/day and 300 mg/kg/day
same,CYP2C19 inhibition,CYP2C19,inhibitor
same,CYP1A2 inhibition,CYP1A2,inhibitor
same,genotoxicity,[5],not genotoxic
same,Tmax,clinical [6],1.5 to 3 h
same,increase of exposures (Cmax and AUC) following multiple dosing,clinical [6],1.30-1.49 fold
same,"AUC(0-last), geometric mean",clinical [6]; 200 mg,9200 ng·h/mL
same,"AUC(0-tau), geometric mean",clinical [6]; 200 mg,9330 ng·h/mL
